# From ChEMBL document CHEMBL1140725, “Pradefovir: a prodrug that targets adefovir to the liver for the treatment of hepatitis B” (J Med Chem, 2008)
# Tests used:
# Hepatocyte = experiment: Prodrug activation in intracellular rat hepatocytes assessed as formation of adefovir diphosphate after 2 hrs; assay type: cell-based
# Rattus norvegicus [1] = experiment: Prodrug activation in Sprague-Dawley rat liver hepatocytes assessed as formation of adefovir diphosphate at 30 mg/kg, po after 8 hrs; assay type: organism-based, Hepatocyte; set-up: dose 30 mg/kg, route oral
# Liver microsomes = experiment: Prodrug activation in Wistar rat liver microsome assessed as formation of adefovir at 250 uM after 5 mins
# Rattus norvegicus [2] = experiment: Cmax in rat liver at 30 mg/kg, po; assay type: ADME, organism-based; set-up: dose 30 mg/kg, route oral; conditions: in vivo
# Kidney = experiment: Biodistribution in rat kidney at 30 mg/kg, po after 24 hrs; assay type: ADME, organism-based; set-up: dose 30 mg/kg, route oral; conditions: in vivo
# Rattus norvegicus [3] = experiment: Biodistribution in rat small intestine at 30 mg/kg, po after 24 hrs; assay type: ADME, organism-based; set-up: dose 30 mg/kg, route oral; conditions: in vivo
# Intestine = experiment: Selectivity index, ratio of biodistribution in rat liver to intestine at 30 mg/kg, po after 24 hrs; assay type: organism-based; set-up: dose 30 mg/kg, route oral; conditions: in vivo
# Liver [4] = experiment: Selectivity index, ratio of biodistribution in rat liver to kidney at 30 mg/kg, po after 24 hrs; assay type: organism-based; set-up: dose 30 mg/kg, route oral; conditions: in vivo
# Liver [5] = experiment: Biodistribution in rat liver at 30 mg/kg, po after 24 hrs; assay type: ADME, organism-based; set-up: dose 30 mg/kg, route oral; conditions: in vivo
# Plasma = experiment: Biodistribution in rat plasma at 30 mg/kg, po after 24 hrs; assay type: ADME, organism-based; set-up: dose 30 mg/kg, route oral; conditions: in vivo
Activity (Hepatocyte) [nmol·h/g],Activity (Liver microsomes) [nmol/min/mg],SMILES,also measured
61.9,1.5,Nc1ncnc2c1ncn2CCOCP1(=O)OCCC(c2cc(F)cc(F)c2)O1 (centres undefined),Activity (Rattus norvegicus [1]): 2.2 nmol·h/g
9.8,2.5,Nc1ncnc2c1ncn2CCOCP1(=O)OCCC(c2ccc(Cl)cc2Cl)O1 (centres undefined),
149.1,2.9,Nc1ncnc2c1ncn2CCOCP1(=O)OCCC(c2ccccc2)O1 (centres undefined),Activity (Rattus norvegicus [1]): 0.6 nmol·h/g
43.1,3.5,Nc1ncnc2c1ncn2CCOCP1(=O)OCCC(c2ccccc2Br)O1 (centres undefined),Activity (Rattus norvegicus [1]): 7.1 nmol·h/g
64.4,1.9,Nc1ncnc2c1ncn2CCOCP1(=O)OCCC(c2cc(Cl)cc(Cl)c2)O1 (centres undefined),Activity (Rattus norvegicus [1]): 2 nmol·h/g
,< 1,COc1ccc(Br)cc1C1CCOP(=O)(COCCn2cnc3c(N)ncnc32)O1 (centres undefined),
40.7,1.6,Cc1cc(C)cc(C2CCOP(=O)(COCCn3cnc4c(N)ncnc43)O2)c1 (centres undefined),
0,0.5,CC(C)(C)c1ccc(C2CCOP(=O)(COCCn3cnc4c(N)ncnc43)O2)cc1 (centres undefined),
,< 1,Nc1ncnc2c1ncn2CCOCP1(=O)OCCC(c2cccc(F)c2)O1 (centres undefined),
70.3,1.9,Nc1ncnc2c1ncn2CCOCP1(=O)OCCC(c2cccc(Br)c2)O1 (centres undefined),Activity (Rattus norvegicus [1]): 2.2 nmol·h/g
< 0.5,1.1,COc1ccc(C2CCOP(=O)(COCCn3cnc4c(N)ncnc43)O2)cc1Br (centres undefined),
0,4,Nc1ncnc2c1ncn2CCOCP1(=O)OCCC(c2ccoc2)O1 (centres undefined),
,2.5,Nc1ncnc2c1ncn2CCOCP1(=O)OCCC(c2ccc(F)cc2F)O1 (centres undefined),
< 0.5,4,COc1ccc(Br)c(C2CCOP(=O)(COCCn3cnc4c(N)ncnc43)O2)c1 (centres undefined),
106.2,4.5,Nc1ncnc2c1ncn2CCOCP1(=O)OCCC(c2ccncc2)O1 (centres undefined),Activity (Rattus norvegicus [1]): 1.2 nmol·h/g
0,0.5,Nc1ncnc2c1ncn2CCOCP1(=O)OCCC(c2ccsc2)O1 (centres undefined),
,2.3,Nc1ncnc2c1ncn2CCOCP1(=O)OCCC(c2cc(F)ccc2F)O1 (centres undefined),
6.2,1.5,Nc1ncnc2c1ncn2CCOCP1(=O)OCCC(c2ccc(Cl)c(Cl)c2)O1 (centres undefined),

# The remaining lines, values behind:
SMILES,Activity (Hepatocyte) [nmol·h/g],Activity (Liver microsomes) [nmol/min/mg],also measured
Nc1ncnc2c1ncn2CCOCP1(=O)OCCC(c2cccc(Cl)c2Cl)O1 (centres undefined),,< 4.5,
CS(=O)(=O)O.Nc1ncnc2c1ncn2CCOCP1(=O)OCCC(c2cccc(Cl)c2)O1 (centres undefined),,,Cmax (Rattus norvegicus [2]): 19.6 nmol/g
Nc1ncnc2c1ncn2CCOCP1(=O)OCCC(c2ccccc2Cl)O1 (centres undefined),,6.2,
Nc1ncnc2c1ncn2CCOCP1(=O)OCCC(c2cccnc2)O1 (centres undefined),26.7,2.9,
Nc1ncnc2c1ncn2CCOC[P@]1(=O)OCC[C@H](c2cccc(Cl)c2)O1,,0.193,Cmax (Rattus norvegicus [2]): 5.4 nmol/g
Nc1ncnc2c1ncn2CCOCP1(=O)OCCC(c2c(Cl)cccc2Cl)O1 (centres undefined),,< 1,
Nc1ncnc2c1ncn2CCOCP1(=O)OCCC(c2ccccc2F)O1 (centres undefined),,< 1,
Nc1ncnc2c1ncn2CCOCP1(=O)OCCC(c2c(F)cccc2F)O1 (centres undefined),,1.5,
Nc1ncnc2c1ncn2CCOCP1(=O)OCCC(c2cccc(F)c2F)O1 (centres undefined),,6.3,
Nc1ncnc2c1ncn2CCOCP1(=O)OCCC(c2cccc(Cl)c2)O1 (cis isomer),,0.421,Drug uptake (Kidney): 196 nmol·h/g; Cmax (Rattus norvegicus [2]): 8 nmol/g; Drug uptake (Rattus norvegicus [3]): 118 nmol·h/g; Selectivity index (Intestine): 7.5; Selectivity index (Liver [4]): 4.5; Drug uptake (Liver [5]): 884 nmol·h/g; Drug uptake (Plasma): 55 nmol·h/g
Nc1ncnc2c1ncn2CCOCP1(=O)OCCC(c2cccc(Cl)c2)O1 (stereo in doubt; 3h),109.3,10.9,Activity (Rattus norvegicus [1]): 6.6 nmol·h/g
Nc1ncnc2c1ncn2CCOCP1(=O)OCCC(c2cccc(Cl)c2)O1 (trans isomer),,< 0.01,
CC(C)(C)C(=O)OCOP(=O)(COCCn1cnc2c(N)ncnc21)OCOC(=O)C(C)(C)C [ADEFOVIR DIPIVOXIL],,,Drug uptake (Kidney): 742 nmol·h/g; Drug uptake (Rattus norvegicus [3]): 3206 nmol·h/g; Selectivity index (Intestine): 0.08; Selectivity index (Liver [4]): 0.4; Drug uptake (Liver [5]): 284 nmol·h/g; Drug uptake (Plasma): 34 nmol·h/g
Nc1ncnc2c1ncn2CCOC[P@@]1(=O)OCC[C@@H](c2cccc(Cl)c2)O1 [PRADEFOVIR],,0.51,Cmax (Rattus norvegicus [2]): 12.2 nmol/g
